According to ChEMBL document CHEMBL4627342, “Novel pyridone EP4 agonists featuring allylic alcohol ω-chains” (Bioorg Med Chem Lett, 2020):

Legend:
Format in all cases: functional, cell-based
[1] = target: T1, Prostaglandin E2 receptor EP4 subtype (Homo sapiens, UniProt P35408); assay: Agonist activity at human EP4 receptor expressed in HEK293 cells by calcium-5 dye based FLIPR assay
[2] = target: T1, Prostaglandin E2 receptor EP4 subtype; assay: Agonist activity at human EP4 receptor expressed in HEK293 cells by calcium-5 dye based FLIPR assay relative to control
[3] = target: T2, Prostaglandin E2 receptor EP1 subtype (Homo sapiens, UniProt P34995); assay: Agonist activity at human EP1 receptor expressed in HEK293 cells by calcium-5 dye based FLIPR assay
T2 sequence (P34995 whole entry): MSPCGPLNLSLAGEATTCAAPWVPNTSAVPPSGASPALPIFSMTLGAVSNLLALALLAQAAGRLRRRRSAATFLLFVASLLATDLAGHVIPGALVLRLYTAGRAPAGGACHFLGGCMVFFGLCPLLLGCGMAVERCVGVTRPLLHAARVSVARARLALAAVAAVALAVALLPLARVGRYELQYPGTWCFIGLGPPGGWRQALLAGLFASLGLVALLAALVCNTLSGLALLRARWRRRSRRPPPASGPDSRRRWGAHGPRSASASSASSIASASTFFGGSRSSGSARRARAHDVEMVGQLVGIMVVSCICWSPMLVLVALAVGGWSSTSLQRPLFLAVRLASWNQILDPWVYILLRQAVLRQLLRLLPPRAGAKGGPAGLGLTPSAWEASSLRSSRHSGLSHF

[4] = target: Prostaglandin E2 receptor EP2 subtype (Homo sapiens, UniProt P43116); assay: Agonist activity at human EP2 receptor expressed in HEK293 cells by calcium-5 dye based FLIPR assay
[5] = target: T3, Prostaglandin E2 receptor EP3 subtype (Homo sapiens, UniProt P43115); assay: Agonist activity at human EP3 receptor expressed in HEK293 cells by calcium-5 dye based FLIPR assay
T3 sequence (P43115 whole entry): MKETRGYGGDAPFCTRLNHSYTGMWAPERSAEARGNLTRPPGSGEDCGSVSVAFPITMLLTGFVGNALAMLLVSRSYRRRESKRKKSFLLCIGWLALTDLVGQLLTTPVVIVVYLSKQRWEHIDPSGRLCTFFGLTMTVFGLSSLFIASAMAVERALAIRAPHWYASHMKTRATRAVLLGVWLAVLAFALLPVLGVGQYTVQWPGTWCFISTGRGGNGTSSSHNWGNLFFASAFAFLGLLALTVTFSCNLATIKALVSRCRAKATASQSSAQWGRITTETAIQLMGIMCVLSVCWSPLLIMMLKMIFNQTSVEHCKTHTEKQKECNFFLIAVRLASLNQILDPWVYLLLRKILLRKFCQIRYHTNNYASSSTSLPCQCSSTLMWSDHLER

T1 sequence (P35408 whole entry): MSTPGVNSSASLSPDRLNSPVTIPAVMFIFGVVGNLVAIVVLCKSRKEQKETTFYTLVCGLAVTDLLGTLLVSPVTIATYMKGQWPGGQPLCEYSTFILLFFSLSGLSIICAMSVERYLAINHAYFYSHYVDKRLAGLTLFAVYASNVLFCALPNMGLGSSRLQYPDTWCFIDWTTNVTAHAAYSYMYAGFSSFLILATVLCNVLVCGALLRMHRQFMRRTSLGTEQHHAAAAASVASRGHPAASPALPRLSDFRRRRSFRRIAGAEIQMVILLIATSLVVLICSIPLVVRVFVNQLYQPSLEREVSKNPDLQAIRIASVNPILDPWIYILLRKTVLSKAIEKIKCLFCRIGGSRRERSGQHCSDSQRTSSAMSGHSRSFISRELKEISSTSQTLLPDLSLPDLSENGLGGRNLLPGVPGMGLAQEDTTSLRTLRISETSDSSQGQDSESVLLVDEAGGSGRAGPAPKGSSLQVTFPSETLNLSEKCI
Prostaglandin E2 receptor EP2 subtype, sequence (P43116 whole entry): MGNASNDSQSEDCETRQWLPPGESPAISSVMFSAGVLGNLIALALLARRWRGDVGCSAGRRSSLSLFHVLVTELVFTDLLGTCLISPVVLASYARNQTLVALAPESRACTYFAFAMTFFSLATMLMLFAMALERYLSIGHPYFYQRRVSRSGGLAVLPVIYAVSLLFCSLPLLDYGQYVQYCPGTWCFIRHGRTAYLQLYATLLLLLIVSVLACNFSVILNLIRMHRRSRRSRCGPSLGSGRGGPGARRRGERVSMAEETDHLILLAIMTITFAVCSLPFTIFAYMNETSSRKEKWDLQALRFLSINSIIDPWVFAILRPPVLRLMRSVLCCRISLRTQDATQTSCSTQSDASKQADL

Row | Structure (SMILES) | EC50 [1] [nM] | Emax [2] [%] | EC50 [3] [nM] | EC50 [4] [nM] | EC50 [5] [nM]
1 | CCCCCC(O)CCc1c(Cl)cc(Cl)c(=O)n1CCc1ccc(C(=O)O)cc1 (centres undefined) | 4.9 | 138 | > 10000 | 1500 | > 10000
2 | CCCCCC(O)/C=C/c1c(Cl)cc(Cl)c(=O)n1CCCCCCC(=O)O (centres undefined) | 160 | 123 | > 10000 | > 10000 | > 10000
3 | CCCCCC(O)CCc1cccc(=O)n1CCCCCCC(=O)O (centres undefined) | 550 | 103 | 2350 | > 10000 | 2700
4 | CCCCCC(C)(O)/C=C/c1c(Cl)cc(Cl)c(=O)n1CCc1ccc(C(=O)O)cc1 (centres undefined) | 29 | 139 | > 10000 | 4700 | > 10000
5 | CCCCCC(O)/C=C/c1c(Br)cc(Br)c(=O)n1CCCCCCC(=O)O (centres undefined) | 360 | 99 | > 10000 | > 10000 | > 10000

Results, then the molecule that gave them:

Row | EC50 [1] [nM] | Emax [2] [%] | EC50 [3] [nM] | EC50 [4] [nM] | EC50 [5] [nM] | Structure (SMILES)
6 |  | 146 |  |  |  | CCCCCC(O)/C=C/c1c(Cl)cc(Cl)c(=O)n1CCc1ccc(C(=O)O)cc1 (stereo in doubt; 9) [listing 1 of 2 here]
7 | 60 |  |  |  |  | CCCCCC(O)/C=C/c1c(Cl)cc(Cl)c(=O)n1CCc1ccc(C(=O)O)cc1 (single isomer, unassigned; ent-9) [listing 1 of 2 here]
8 | 7 |  | > 10000 | > 10000 | > 10000 | CCCCCC(O)/C=C/c1c(Cl)cc(Cl)c(=O)n1CCc1ccc(C(=O)O)cc1 (racemic) [listing 1 of 2 here]
9 |  | 129 |  |  |  | CCCCCC(O)/C=C/c1c(Cl)cc(Cl)c(=O)n1CCc1ccc(C(=O)O)cc1 (racemic) [listing 2 of 2 here]
10 | 13 |  |  |  |  | CCCCCC(O)/C=C/c1c(Cl)cc(Cl)c(=O)n1CCc1ccc(C(=O)O)cc1 (stereo in doubt; 9) [listing 2 of 2 here]
11 |  | 136 |  |  |  | CCCCCC(O)/C=C/c1c(Cl)cc(Cl)c(=O)n1CCc1ccc(C(=O)O)cc1 (single isomer, unassigned; ent-9) [listing 2 of 2 here]
